The results in this text go back to patent US8207178B2 (priority 2007, dated 2012).

For one test, the system named is wild type HIV-1. Description: microbe, parasite or virus in culture. As to conditions: Human immunodeficiency virus 1, Hela-JC53. It counts as cell-based, human immunodeficiency virus type 1 (HIV-1).
A further test concerns HIV-1 K103N-L100I mutant. Description: microbe, parasite or virus in culture. It counts as cell-based, human immunodeficiency virus type 1 (HIV-1). The following applies: Human immunodeficiency virus 1, HeLa, read-out: EC50 mutant K103N-L100I, mutant K103N-L100I.

As usually defined, the EC50 is the concentration at which the effect is half-maximal.

For the molecule `Cc1cc(-c2ccc3c(c2)OCO3)cc(C)c1Oc1nc(Nc2ccc(C#N)cc2)nc2ccn(C)c12` [Example 69, 4-(4-(4-(benzo[d][1,3]dioxol-5-yl)-2,6-dimethylbiphenoxy)-5-methyl-5H-pyrrolo[3,2-d]pyrimidin-2-ylamino) benzonitrile], the EC50 is 1 to 10 nM in the test with wild type HIV-1 and above 10 nM in the test with HIV-1 K103N-L100I mutant.
For the molecule `Cc1cc(-c2ccc(S(N)(=O)=O)cc2)cc(C)c1Oc1nc(Nc2ccc(C#N)cc2)nc2ccn(C)c12` [Example 72, 4′-(2-(4-cyanophenylamino)-5-methyl-5H-pyrrolo[3,2-d]pyrimidin-4-yloxy)-3′,5′-dimethylbiphenyl-4-sulfonamide], the EC50 in the test with wild type HIV-1 was 1 to 10 nM; in the test on HIV-1 K103N-L100I mutant, below 1 nM.
On the same counts, the results for `Cc1cc(-c2ccccc2S(N)(=O)=O)cc(C)c1Oc1nc(Nc2ccc(C#N)cc2)nc2ccn(C)c12` [Example 73, 4′-(2-(4-cyanophenylamino)-5-methyl-5H-pyrrolo[3,2-d]pyrimidin-4-yloxy)-3′,5′-dimethylbiphenyl-2-sulfonamide] are above 10 nM and above 10 nM.
`Cc1cc(-c2ccccc2S(=O)(=O)NC(C)(C)C)cc(C)c1Oc1nc(Nc2ccc(C#N)cc2)nc2ccn(C)c12` [Example 74, N-tert-butyl-4′-(2-(4-cyanophenylamino)-5-methyl-5H-pyrrolo[3,2-d]pyrimidin-4-yloxy)-3′,5′-dimethylbiphenyl-2-sulfonamide]: the EC50 in the test on wild type HIV-1 and in the test with HIV-1 K103N-L100I mutant was above 10 nM in each case.
As for `Cc1cc(-c2ccc(C(=O)O)cc2)cc(C)c1Oc1nc(Nc2ccc(C#N)cc2)nc2ccn(C)c12` [Example 75, 4′-(2-(4-cyanophenylamino)-5-methyl-5H-pyrrolo[3,2-d]pyrimidin-4-yloxy)-3′,5′-dimethylbiphenyl-4-carboxylic acid], the EC50 with wild type HIV-1 is below 1 nM; in the test with HIV-1 K103N-L100I mutant, 1 to 10 nM.
`Cc1cc(-c2cnn(Cc3ccccc3)c2)cc(C)c1Oc1nc(Nc2ccc(C#N)cc2)nc2ccn(C)c12` [Example 76, 4-(4-(4-(1-benzyl-1H-pyrazol-4-yl)-2,6-dimethylphenoxy)-5-methyl-5H-pyrrolo[3,2-d]pyrimidin-2-ylamino)benzonitrile]: the figures for the EC50 with wild type HIV-1 and in the test on HIV-1 K103N-L100I mutant were 1 to 10 nM and above 10 nM, respectively.
As to `Cc1cc(-c2cccc(C(N)=O)c2)cc(C)c1Oc1nc(Nc2ccc(C#N)cc2)nc2ccn(C)c12` [Example 77, 4′-(2-(4-cyanophenylamino)-5-methyl-5H-pyrrolo[3,2-d]pyrimidin-4-yloxy)-3′,5′-dimethylbiphenyl-3-carboxamide], the EC50 in the test with wild type HIV-1 is 1 to 10 nM; in the test with HIV-1 K103N-L100I mutant, above 10 nM.
For `Cc1cc(-c2ccnc(N3CCOCC3)c2Cl)cc(C)c1Oc1nc(Nc2ccc(C#N)cc2)nc2ccn(C)c12` [Example 79, 4-(4-(4-(3-chloro-2-morpholinopyridin-4-yl)-2,6-dimethylphenoxy)-5-methyl-5H-pyrrolo[3,2-d]pyrimidin-2-ylamino)benzonitrile], in that order: 1 to 10 nM and 1 to 10 nM.
On to `Cc1cc(-c2cccnc2Cl)cc(C)c1Oc1nc(Nc2ccc(C#N)cc2)nc2ccn(C)c12` [Example 80, 4-(4-(4-2-chloropyridin-3-yl)-2,6-dimethylphenoxy)-5-methyl-5H-pyrrolo[3,2-d] pyrimidin-2-ylamino benzonitrile], for which the EC50 with wild type HIV-1 and with HIV-1 K103N-L100I mutant was 1 to 10 nM throughout.
With `COc1cccc(-c2cc(C)c(Oc3nc(Nc4ccc(C#N)cc4)nc4ccn(C)c34)c(C)c2)c1C#N` [Example 81, 4′-(2-(4-cyanophenylamino)-5-methyl-5H-pyrrolo[3,2-d]pyrimidin-4-yloxy)-3-methoxy-3′,5′-dimethylbiphenyl-2-carbonitrile], the EC50 in the test on wild type HIV-1 was 1 to 10 nM; in the test with HIV-1 K103N-L100I mutant, above 10 nM.
For `Cc1cc(-c2ccc(C#N)nc2)cc(C)c1Oc1nc(Nc2ccc(C#N)cc2)nc2ccn(C)c12` [Example 84, 5-(4-(2-(4-cyanophenylamino)-5-methyl-5H-pyrrolo[3,2-d]pyrimidin-4-yloxy)-3,5-dimethyl-phenyl)picolinonitrile], in that order: 1 to 10 nM and 1 to 10 nM.
On the same counts, the results for `Cc1cc(-c2ccc(S(=O)(=O)NC3CC3)cc2)cc(C)c1Oc1nc(Nc2ccc(C#N)cc2)nc2ccn(C)c12` [Example 85, 4′-(2-(4-cyanophenylamino)-5-methyl-5H-pyrrolo[3,2-d]pyrimidin-4-yloxy)-N-cyclopropyl-3′,5′-dimethylbiphenyl-4-sulfonamide] are 1 to 10 nM and above 10 nM.
On the same counts, the results for `Cc1cc(-c2cc3ccccc3[nH]2)cc(C)c1Oc1nc(Nc2ccc(C#N)cc2)nc2ccn(C)c12` [Example 86, 4-(4-(4-(1H-indol-2-yl)-2,6-dimethylphenoxy)-5-methyl-5H-pyrrolo[3,2-d]pyrimidin-2-ylamino)benzonitrile] are above 10 nM and above 10 nM.
Turning to `COc1cncc(-c2cc(C)c(Oc3nc(Nc4ccc(C#N)cc4)nc4ccn(C)c34)c(C)c2)c1` [Example 87, 4-(4-(4-(5-methoxypyridin-3-yl)-2,6-dimethylphenoxy)-5-methyl-5H-pyrrolo[3,2-d]pyrimidin-2-ylamino) benzonitrile], the EC50 is 1 to 10 nM in the test on wild type HIV-1 and above 10 nM in the test on HIV-1 K103N-L100I mutant.
For `Cc1cc(-c2ccc(C(N)=O)cc2)cc(C)c1Oc1nc(Nc2ccc(C#N)cc2)nc2c(Cl)cn(C)c12` [Example 88, 4′-(7-chloro-2-(4-cyanophenylamino)-5-methyl-5H-pyrrolo[3,2-d]pyrimidin-4-yloxy)-3′,5′-dimethylbiphenyl-4-carboxamide], the EC50 with wild type HIV-1 and with HIV-1 K103N-L100I mutant was 1 to 10 nM in each case.
In the case of `Cc1cc(-c2ccc(C(=O)N(C)C)cc2)cc(C)c1Oc1nc(Nc2ccc(C#N)cc2)nc2ccn(C)c12` [Example 89, 4′-(2-(4-cyanophenylamino)-5-methyl-5H-pyrrolo[3,2-d]pyrimidin-4-yloxy)-N,N,3′,5′-tetramethylbiphenyl-4-carboxamide], the EC50 with wild type HIV-1 was 1 to 10 nM; in the test with HIV-1 K103N-L100I mutant, above 10 nM.
For `Cc1cc(-c2ccc(C(=O)N3CCC3)cc2)cc(C)c1Oc1nc(Nc2ccc(C#N)cc2)nc2ccn(C)c12` [Example 90], in that order: 1 to 10 nM and above 10 nM.
As to `Cc1cc(-c2ccc(C(=O)N3CCC(C#N)C3)cc2)cc(C)c1Oc1nc(Nc2ccc(C#N)cc2)nc2ccn(C)c12` (centres unmarked) [Example 91, 1-(4′-(2-(4-cyanophenylamino)-5-methyl-5H-pyrrolo[3,2-d]pyrimidin-4-yloxy)-3′,5′-dimethylbiphenylcarbonyl) pyrrolidine-3-carbonitrile], the EC50 with wild type HIV-1 and in the test on HIV-1 K103N-L100I mutant was above 10 nM each time.
On to `Cc1cc(-c2ccc(C(=O)NC3CC3)cc2)cc(C)c1Oc1nc(Nc2ccc(C#N)cc2)nc2ccn(C)c12` [Example 92, 4′-(2-(4-cyanophenylamino)-5-methyl-5H-pyrrolo[3,2-d]pyrimidin-4-yloxy)-N-cyclopropyl-3′,5′-dimethylbiphenyl-4-carboxamide], for which the EC50 with wild type HIV-1 and with HIV-1 K103N-L100I mutant was above 10 nM in each case.
`Cc1cc(-c2ccc(C(=O)N3CCC(O)C3)cc2)cc(C)c1Oc1nc(Nc2ccc(C#N)cc2)nc2ccn(C)c12` (centres unmarked) [Example 94, 4-(4-(4′-(3-hydroxypyrrolidine-1-carbonyl)-3,5-dimethylbiphenyl-4-yloxy)-5-methyl-5H-pyrrolo[3,2-d]pyrimidin-2-ylamino) benzonitrile]: the EC50 in the test with wild type HIV-1 and in the test on HIV-1 K103N-L100I mutant was 1 to 10 nM throughout.
For the molecule `Cc1cc(-c2ccccc2)cc(C)c1Oc1nc(Nc2ccc(C#N)cc2)nc2ccn(C)c12` [Example 95, 4-(4-(3,5-Dimethylbiphenyl-4-yloxy)-5-methyl-5H-pyrrolo[3,2-d]pyrimidin-2-ylamino)benzonitrile], the EC50 with wild type HIV-1 and in the test with HIV-1 K103N-L100I mutant was above 10 nM throughout.
As for `Cc1cc(-c2ccncc2)ccc1Oc1nc(Nc2ccc(C#N)cc2)nc2nc[nH]c12` [Example 98, 4-(6-(2-Methyl-4-(pyridin-4-yl)phenoxy)-7H-purin-2-ylamino)benzonitrile], the figures for the EC50 in the test on wild type HIV-1 and in the test with HIV-1 K103N-L100I mutant were below 1 nM and above 10 nM, respectively.
As to `COc1ccc(Cn2cnc3nc(Nc4ccc(C#N)cc4)nc(Oc4c(C)cc(-c5ccncc5)cc4Cl)c32)cc1` [Example 99, 4-(6-(2-chloro-6-methyl-4-(pyridin-4-yl)phenoxy)-7-(4-methoxybenzyl)-7H-purin-2-ylamino)benzonitrile], the EC50 with wild type HIV-1 was 1 to 10 nM; in the test on HIV-1 K103N-L100I mutant, above 10 nM.
On the same counts, the results for `Cc1cc(-c2ccncc2)cc(Cl)c1Oc1nc(Nc2ccc(C#N)cc2)nc2nc[nH]c12` [Example 100, 4-(6-(2-Chloro-6-methyl-4-(pyridin-4-yl)phenoxy)-7H-purin-2-ylamino)benzonitrile] are 1 to 10 nM and above 10 nM.
Take `COc1ccc(Cn2cnc3nc(Nc4ccc(C#N)cc4)nc(Oc4ccc(-c5ccncc5)cc4Cl)c32)cc1` [Example 101, 4-(6-(2-Chloro-4-(pyridin-4-yl)phenoxy)-7-(4-methoxybenzyl)-7H-purin-2-ylamino)benzonitrile]: the EC50 with wild type HIV-1 and in the test on HIV-1 K103N-L100I mutant was above 10 nM each time.
In the case of `N#Cc1ccc(Nc2nc(Oc3ccc(-c4ccncc4)cc3Cl)c3[nH]cnc3n2)cc1` [Example 102, 4-(6-(2-Chloro-4-(pyridin-4-yl)phenoxy)-7H-purin-2-ylamino)benzonitrile], the EC50 with wild type HIV-1 is below 1 nM; in the test with HIV-1 K103N-L100I mutant it was above 10 nM.
Consider `COc1ccc(Cn2cnc3nc(Nc4ccc(C#N)cc4)nc(Oc4c(Cl)cc(-c5ccncc5)cc4Cl)c32)cc1` [Example 103, 4-(6-(2,6-Dichloro-4-(pyridin-4-yl)phenoxy)-7-(4-methoxybenzyl)-7H-purin-2-ylamino)benzonitrile], for which the EC50 in the test on wild type HIV-1 was 1 to 10 nM; with HIV-1 K103N-L100I mutant, above 10 nM.
For `N#Cc1ccc(Nc2nc(Oc3c(Cl)cc(-c4ccncc4)cc3Cl)c3[nH]cnc3n2)cc1` [Example 104, 4-(6-(2,6-Dichloro-4-(pyridin-4-yl)phenoxy)-7H-purin-2-ylamino)benzonitrile], in that order: 1 to 10 nM and 1 to 10 nM.
